The test has as its system 317291-083-R-J1-PDC complex spheroids, viability. The experiment in a line: Anticancer human tumor 317291-083-R-J1-PDC patient-derived soft tissue sarcoma cell line growth inhibition [GQUAD]. The following applies: for viability, T/C: stronger effect = lower value. From the text: DNA G-quadruplex Stabilizer Agents in Combinations in Complex Spheroids
A high-throughput screen of multi-cell type tumor spheroids was designed to identify active combinations of DNA G-quadruplex stabilizer agents and targeted small molecules. Complex spheroids include a stromal component modeled by human endothelial cells (HUVEC) and fibroblasts modeled by human mesenchymal stem cells (MSCs). The concentration ranges selected for each drug and investigational agent were based upon clinically achievable concentrations if the clinical Cmax of the agent was known.
Compounds. The drugs and investigational agents: pidnarulex (CX-5461; NSC782164), APTO-253 (NSC789042), BRACO-19 (NSC847499), peposertib (NSC802822), ceralasertib (NSC780249), elimusertib (NSC800525), camonsertib (NSC841442), AZD-1390 (NSC803789), olaparib (NSC753686), talazoparib (NSC767125), ART-558 (NSC835418), sotorasib (NSC818433), MRTX-1133 (NSC836407), SN-38 (NSC673596), topotecan (NSC609699), etoposide (NSC141540), doxorubicin (NSC123127), gemcitabine (NSC613327), 5-fluorouracil (NSC19893), paclitaxel (NSC125973), vemurafenib (NSC761431), panobinostat (NSC761190), R-306465 (JNJ-16241199; NSC773264), adavosertib (NSC754352), TP-3654 (NSC805149), carboplatin (NSC241240), KSQ-4279 (NSC840948), and staurosporine (NSC755774) were obtained from the National Cancer Institute (NCI) Developmental Therapeutics Program Chemical Repository (34). The FDA-approved anticancer drug set is available from the NCI Developmental Therapeutics Program. […] The stock solutions were prepared in dimethyl sulfoxide (DMSO, Sigma-Aldrich, St. Louis, MO, cat. D2650) at 800-fold the tested concentration and stored at -70 degrees C prior to their use. All drugs and investigational agents were tested over a range starting from a high concentration at or near the clinical Cmax and decreasing in half-log increments. If the clinical Cmax for an agent had not been determined, the highest concentration tested was 10 microM.
2.3 Cell Culture. All cells were maintained in an incubator at 37 degrees C and 5% CO2 with 95% humidity. The PDC lines were cultured according to standard operating procedures established by the NCI PDMR. All PDCs were thawed and cultured in Matrigel-coated flasks prepared with a working solution of 1X Ham's F-12 nutrient mix, without supplementation (Invitrogen, cat. 11765054), 100 U/mL penicillin-streptomycin (Invitrogen, cat. 15140122), and 2.5% Matrigel (Corning Inc., cat. 354248) for the first three passages. The 857933-349-R-J2-PDC line was cultured in 6C/Colon 1B media, which includes advanced DMEM/F-12 (Thermo Fisher Scientific, cat. 12634028), 10 mM HEPES (Thermo Fisher Scientific, cat. 15630080), 1X GlutaMAX supplement (Thermo Fisher Scientific, cat. 35050061), 0.1 mg/mL primocin (InvivoGen, cat. ant-pm-2), 10% defined fetal bovine serum, heat inactivated (HyClone Laboratories Inc., cat. SH30070.03HI), 50% L-WRN conditioned media (ATCC, cat. CRL-3276), 1.25 mM N-Acetyl-L-cysteine (Sigma-Aldrich, cat. A9165), 10 mM nicotinamide (Sigma-Aldrich, cat. N0636), 1X B-27 supplement (Thermo Fisher Scientific, cat. 17504044), 1X N-2 supplement (Thermo Fisher Scientific, cat. 17502048), 10 microM Y-27632 dihydrochloride (Tocris Bioscience, cat. 1254), and 50 ng/mL human EGF recombinant protein (Thermo Fisher Scientific, cat. PHG0311). The 485176-168-R4-J1-PDC line was cultured in Panc media, which includes all 6C/Colon 1B media components plus 100 ng/mL human FGF-10 (Thermo Fisher Scientific, cat. 100-26), 500 nM SB-431542 (Selleckchem, cat. S1067), and gastrin (Tocris, cat. 3006).
[…]

Results on three molecules are retold here after PubChem BioAssay AID2060497 (Molecular Pharmacology Branch, DTP, NCI, 2025).

SMILES strings stand for the structures. Several values for one entry are separate records, joined by “and”; a condition that tells them apart may be missing. Identical values can stand only once. Bounds are passed on as bounds.
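Further: spheroids exposed to compounds for one week before readout.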
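Wherever viability, T/C is given: percent viability relative to DMSO vehicle wells taken as 100%.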

Broadly, the IC50 is the concentration at which inhibition is half-maximal. The viability, T/C is the ratio of treated to control. Consider `COc1ccc([C@@H](O)c2cc(-c3ncnc4cc(N5CCOCC5)ccc34)c(F)cc2Cl)nn1` + Cc1cnc(CNC(=O)c2c(=O)c3ccc(N4CCCN(C)CC4)nc3n3c2sc2ccccc23)cn1, for which the IC50 runs as follows: (curve of first compound, second compound 0.0316 µM) 2030 nM; (curve of first compound, second compound 0.1 µM) 163 nM; (curve of first compound, second compound 0.316 µM) 61.9 nM; (curve of first compound, second compound 1 µM) < 31.6 nM; (curve of first compound, second compound 3.16 µM) < 31.6 nM; (curve of first compound, second compound 10 µM) < 31.6 nM. Also, the viability, T/C was 108% (second compound 0.0316 µM, first compound 0.0316 µM); 92.1% (second compound 0.0316 µM, first compound 0.1 µM); 68.2% (second compound 0.0316 µM, first compound 0.316 µM); 66.6% (second compound 0.0316 µM, first compound 1 µM); 41.5% (second compound 0.0316 µM, first compound 3.16 µM); 30.7% (second compound 0.0316 µM, first compound 10 µM). Besides, the viability, T/C by setting is: (second compound 0.1 µM, first compound 0.0316 µM) 85.9%; (second compound 0.1 µM, first compound 0.1 µM) 50.3%; (second compound 0.1 µM, first compound 0.316 µM) 49.4%; (second compound 0.1 µM, first compound 1 µM) 35.1%; (second compound 0.1 µM, first compound 3.16 µM) 24.1%; (second compound 0.1 µM, first compound 10 µM) 31.8%. The viability, T/C was 58.2% (second compound 0.316 µM, first compound 0.0316 µM); 42.9% (second compound 0.316 µM, first compound 0.1 µM); 38.1% (second compound 0.316 µM, first compound 0.316 µM); 22.4% (second compound 0.316 µM, first compound 1 µM); 24.2% (second compound 0.316 µM, first compound 3.16 µM); 19.8% (second compound 0.316 µM, first compound 10 µM). The viability, T/C (second compound 1 µM, first compound 0.0316 µM) is 41%; the viability, T/C (second compound 1 µM, first compound 0.1 µM) is 25.3%; the viability, T/C (second compound 1 µM, first compound 0.316 µM) is 19.6%; the viability, T/C (second compound 1 µM, first compound 1 µM) is 23.4%; the viability, T/C (second compound 1 µM, first compound 3.16 µM) was 33.7%; the viability, T/C (second compound 1 µM, first compound 10 µM) is 22.7%. Further, the viability, T/C (second compound 3.16 µM, first compound 0.0316 µM) was 40.1%; the viability, T/C (second compound 3.16 µM, first compound 0.1 µM) is 41.4%; the viability, T/C (second compound 3.16 µM, first compound 0.316 µM) was 19.8%; the viability, T/C (second compound 3.16 µM, first compound 1 µM) is 20.6%; the viability, T/C (second compound 3.16 µM, first compound 3.16 µM) was 23%; the viability, T/C (second compound 3.16 µM, first compound 10 µM) was 16.9%. In addition, the viability, T/C was 19.1% (second compound 10 µM, first compound 0.0316 µM); 40.8% (second compound 10 µM, first compound 0.1 µM); 17.7% (second compound 10 µM, first compound 0.316 µM); 17.3% (second compound 10 µM, first compound 1 µM); 18.6% (second compound 10 µM, first compound 3.16 µM); 19.9% (second compound 10 µM, first compound 10 µM).
With `C#Cc1c(F)ccc2cc(O)cc(-c3ncc4c(N5CC6CCC(C5)N6)nc(OCC56CCCN5CC(F)C6)nc4c3F)c12` (stereo unspecified), the viability, T/C was 102% and 110% and 104% (compound 0.0316 µM); 121% and 94.4% and 94.7% (compound 0.1 µM); 106% and 97.1% and 94.4% (compound 0.316 µM); 117% and 102% and 95.2% (compound 1 µM); 124% and 92.5% and 79.8% (compound 3.16 µM); 87.1% and 32.5% and 43.6% (compound 10 µM). Also, the IC50 (curve of compound) is > 10000 nM and 7160 nM and 8220 nM.
On to `CC(C)(O)C1CCC(Nc2ccc3ncc(-c4cccc(C(F)(F)F)c4)n3n2)CC1` (stereo unspecified), for which the viability, T/C (compound 0.0316 µM) was 116% and 108% and 110%; the viability, T/C (compound 0.1 µM) is 95.4% and 96.7% and 97.2%; the viability, T/C (compound 0.316 µM) was 83% and 89.8% and 76.7%; the viability, T/C (compound 1 µM) is 30% and 33.8% and 28.6%; the viability, T/C (compound 3.16 µM) is 0.43% and 0.52% and 1.03%; the viability, T/C (compound 10 µM) was 0.85% and 0.69% and 1%. Moreover, the half-inhibitory concentration (IC50) (curve of compound) is 633 nM and 711 nM and 588 nM.
